Results on two molecules are retold here after publication PMC12434668 (Journal of Medicinal Chemistry, 2025).

Data set [1] concerns caspase 3/7 in K562 cells. Nature of the data set: Caspase 3/7 induction assay (Caspase-Glo), K562. In kind it is cell-based. To be noted: compound treatment for 3 h. The method, then:
(§1) Cells were treated with a 10-point compound titration and incubated at 37 °C for 3 h.

The next data set has as its system A427 cells. Kind of data set: In vitro proliferation assay (CellTiter-Glo), A427. In kind it is cell-based. To be noted: Homo sapiens, A-427; A427 cell line; average of at least n = 2, triplicate. Put shortly: (§2)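 Cells (A427 in RPMI1640 + 10% FCS; NCI-H929 in RPMI1640 + 10% FCS + 0.05 mM mercaptoethanol) were treated in triplicate, 0.5% DMSO final, for 72 or 96 h. CellTiter-Glo luminescence was normalized to day-0 cells, and IC50 values came from four-parameter sigmoidal fits.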
On the technique in general: Cellular ATP, detected with luciferase, serves as a proxy for viable cell number.

A further data set deals with NCI-H929 cells. Kind of data set: In vitro proliferation assay (CellTiter-Glo), H929. It counts as cell-based. The settings on record: Homo sapiens, H929 cell line, average of at least n = 2, triplicate. Put shortly: as §2
Another data set deals with K562 cells. Kind of data set: In vitro proliferation counterscreen, Mcl-1 insensitive K562. It counts as cell-based.
A further data set concerns Bcl-xL. Nature of the data set: Selectivity for Mcl-1 over Bcl-xL. In kind it is binding.
The next data set addresses T1, Mcl-1 (Homo sapiens, UniProt Q07820).
T1 construct: Briefly, a previously reported construct was subcloned into an expression vector (pDEST-HisMBP); MBP (from vector pDEST-HisMBP); made in house; host or cells: Escherichia coli BL21 CodonPlus (DE3) RIL
Nature of the data set: TR-FRET binding assay (FITC-Bak peptide competition). The settings on record: in the presence of 1% fetal bovine serum; average of at least n = 2; read-out: TRFRET, Mcl-1 Ki.

The test system of data set [2] is A427 cell line-derived NSCLC xenograft. Kind of data set: Subcutaneous A427 NSCLC xenograft efficacy study. The settings on record: for tumor regressions (day 28): animals regressing / group. It counts as in vivo. An excerpt: Female BomTac:NMRI-Foxn1nu mice and CB17/Icr-Prkdc(scid)/IcrCrl and were obtained from Taconic Denmark at an age of 6–8 weeks. After arrival of the local animal facility at Boehringer Ingelheim RCV GmbH & Co KG (institutional approval–Amt der Wiener Landesregierung, Magistratsabteilung 58, GZ: 135147/2013/4) mice were allowed to adjust to housing conditions at least for 5 days before the start of the experiment. Mice were group-housed under pathogen-free and controlled environmental conditions and handled according to the institutional, governmental and European Union guidelines (Austrian Animal Protection Laws, GV-SOLAS and FELASA guidelines). Animal studies were approved by the internal ethics committee and the local governmental committee (Amt der Wiener Landesregierung, Magistratsabteilung 58). To establish subcutaneous tumors mice were injected with 5 × 10^6 A427 cells in Matrigel (CB17/Icr-Prkdc(scid)/IcrCrl. Tumor diameters were measured with a caliper three times a week. The volume of each tumor [in mm^3] was calculated according to the formula “tumor volume = length*diameter^2*π/6.” To monitor side effects of treatment, mice were inspected daily for abnormalities and body weight was determined. Animals were sacrificed when the tumors reached a size of 1500 mm^3. Mice were dispatched randomly into treatment groups when the tumor size was 160 mm^3. Tumors were reported as regressing when the tumor volume at a given day was below the tumor volume at treatment start.

In data set [3] the test system is caspase 3/7 in A427 cells. Nature of the data set: Caspase 3/7 induction assay (Caspase-Glo), A427. In kind it is cell-based. To be noted: compound treatment for 3 h. On the procedure:
as §1

Another data set relates to Bcl-2. Kind of data set: Selectivity for Mcl-1 over Bcl-2. It counts as binding.
The subject of data set [4] is caspase 3/7 in H929 cells. Nature of the data set: Caspase 3/7 induction assay (Caspase-Glo), H929. It counts as cell-based. To be noted: compound treatment for 3 h. The method, then: as §1
The nature of data set [5]: Kinetic aqueous solubility. In kind it is physicochemical. The settings on record: aqueous medium at pH 6.8, pH 6.8.
The nature of data set [6]: Mouse pharmacokinetic analyses (i.v. and oral). The settings on record: plasma. In kind it is in vivo. Put shortly: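 Mice received compound i.v. or orally in 10% ethanol/10% Cremophor EL; alternative vehicles (20% Phosphal IPG, 20% Phosphal MCT, 10% or 40% HP-β-CD) were also screened. Plasma drug levels at set time points were quantified by HPLC–MS/MS with internal standard after acetonitrile precipitation; PK parameters derived by noncompartmental analysis.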

Details of data set [7]: method as in earlier work. To be noted: ref 66 (number lost in text); cited from earlier work.

In brackets after ≈: the same amount, converted by molar mass. Like-named read-outs stand apart in the source and are kept apart here.

T1 sequence (Q07820 whole entry): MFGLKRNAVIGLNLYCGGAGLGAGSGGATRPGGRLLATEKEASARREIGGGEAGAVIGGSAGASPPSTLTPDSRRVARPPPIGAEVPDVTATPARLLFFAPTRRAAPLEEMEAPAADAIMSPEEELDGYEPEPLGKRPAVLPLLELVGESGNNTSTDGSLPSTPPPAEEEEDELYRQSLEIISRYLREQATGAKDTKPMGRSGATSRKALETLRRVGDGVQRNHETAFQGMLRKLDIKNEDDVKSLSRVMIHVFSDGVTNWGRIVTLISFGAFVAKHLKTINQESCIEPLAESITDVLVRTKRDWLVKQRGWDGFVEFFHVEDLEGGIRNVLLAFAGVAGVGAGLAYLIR

As usually defined, the EC50 is the concentration needed to bring the measured effect to its halfway point. Low readings indicate higher potency in that assay, high ones lower potency in that assay. For orientation: GI50 means the concentration giving 50% growth inhibition. As a reminder, the Ki is a measure of affinity in units of concentration, obtained from inhibition or displacement. Usually kinetic solubility stands for the concentration staying in solution when a stock, usually in DMSO, is diluted into the medium. What is called bioavailability is the share of a dose that reaches the circulation, judged against a reference dose that is usually intravenous. Turning to `COc1cc2c3c(cc(C(=O)O)n3CCCOCc3nn(C)cc3-c3c(Cl)ccc4c(CCCOc5cc(C)c(Cl)c(C)c5)c5n(c34)[C@H](C)CN2C5=O)c1OC` [Compound 13, (2^63^4 S a ,1^72^2 R a ,2^4 R)-2^7-Chloro-2^10-(3-(4-chloro-3,5-dimethylphenoxy)propyl)-1^4,1^5-dimethoxy-2^4,3^1-dimethyl-2^1-oxo-2^1,2^2,2^3,2^4-tetrahydro-1^1 H,3^1 H-5-oxa-2(2,6)-pyrazino[1,2-a]indola-1(7,1)-indola-3(4,3)-pyrazolacyclooctaphane-1^2-carboxylic Acid], the EC50 in [1] (Homo sapiens, K562) is greater than 3120 nM; in data set [3] (Homo sapiens, A-427), 7.8 nM; in [4] (Homo sapiens, NCI-H929) it was 13 nM. For the same molecule, in data set [1], the “K562 Caspase 3/7 fold over vehicle (FoV)” value is 1.3 fold. Besides, the GI50 is 25 ± 9 nM with A427 cells; 14 ± 4 nM in the data set with NCI-H929 cells; greater than 12500 nM in the data set with K562 cells (Homo sapiens, Mcl-1 insensitive K562, top concentration tested 12.5 µM). The “selectivity for Mcl-1-sensitive cell lines over the K562 control” value with K562 cells (GI50 ratio) is listed as greater than 900 fold. In the data set on Bcl-xL, the “selectivity for Mcl-1 over Bcl-xL” value is recorded as > 50,000 fold. Moreover, the Ki on Mcl-1 was less than 0.08 nM. Moreover, in data set [2] (60 mg/kg q14d i.v.), the “tolerability, body weight” value is on record as “body weight behaved similarly to the vehicle control cohort”. In data set [2] (60 mg/kg q14d i.v.), the “tumor regressions (day 28)” value is 7/8. For the same molecule, in data set [2] (sc, 60 mg/kg, 480 h), the “tumor outgrowth, study day” value is roughly 50 study day. Also, in data set [3], the “A427 Caspase 3/7 fold over vehicle (FoV)” value is 16 fold. Also, in the data set with Bcl-2, the “selectivity for Mcl-1 over Bcl-2” value is recorded as > 50,000 fold. Also, the “H929 Caspase 3/7 maximum activity, fold over vehicle (FoV)” value in data set [4] is 16 fold. Also, in data set [5], the solubility (kinetic) came to 85 µg/mL (≈ 106 µM). Besides, the AUC in data set [6] (iv, 20 mg/kg, read-out: AUCIV) turned out to be 60.9 µM·h; in data set [6] (iv, 30 mg/kg q14d i.v., xenograft study, read-out: AUC), 144 µM·h; in data set [6] (iv, 60 mg/kg q14d i.v., xenograft study, read-out: AUC), 481 µM·h; in data set [6] (oral, 20 mg/kg, read-out: AUCPO), 0.625 µM·h. For the same molecule, the clearance stood at 7.4 mL/min/kg in data set [6] (iv, dosed at 20 mg/kg, read-out: i.v. mouse CL); 7.4 mL/min/kg in data set [6] (iv, supplementary CSV, unit not given (Table 1: 20 mg/kg, 14 and 16 at 10 mg/kg), read-out: CL). The bioavailability in data set [6] (po, read-out: oral bioavailability (F)) was found to be 1%.
Regarding `COc1c(OCC2CCOCC2)cc(N2C[C@@H](C)n3c(c(CCCOc4cc(C)c(Cl)c(C)c4)c4ccc(Cl)c(-c5c(C)nc(C)nc5C)c43)C2=O)c2c1cc(C(=O)O)n2C` [Compound 1], the “dog CL” value in data set [7] is 5.2 mL/min/kg. For the same molecule, the “tumor regressions (day 28)” value in data set [2] (40 mg/kg q14d i.v.) is 0/8. Besides, the AUC in [6] (iv, 40 mg/kg q14d i.v., xenograft study, read-out: AUC) was determined as 198 µM·h.
